Tests used:
[1] = biological target: T1, wild-type human cardiac sodium channel, hNav1.5 (Homo sapiens, UniProt Q14524); experiment: Late INa screening assay (late sodium current, PatchXpress whole cell patch clamp); type: cell-based; details: read-out: Late INa % blk
[2] = biological target: T1, wild-type human cardiac sodium channel, hNav1.5; experiment: Peak INa screening assay (tonic block TB and use-dependent block UDB of peak sodium current); type: cell-based; details: compound at 10 μM
Description: The late sodium current (Late INa) and peak sodium current (Peak INa) assays are performed on an automated electrophysiology platform, PatchXpress 7000A (MDS Analytical Technologies, Sunnyvale, Calif.), which uses the whole cell patch clamp technique to measure currents through the cell membrane of up to 16 cells at a time. The assay uses an HEK293 (human embryonic kidney) cell line heterologously expressing the wild-type human cardiac sodium channel, hNav1.5, purchased from Millipore (Billerica, Mass.). No beta subunits were coexpressed with the Na channel alpha subunit. […] Experiments are carried out at 24-27° C.
For both the Late INa and Peak INa assays, series resistance compensation is set to 50% and whole-cell compensation is performed automatically. […] Currents through open sodium channels are automatically recorded and stored in the DataXpress2 database (MDS Analytical Technologies, Sunnyvale, Calif.). Analysis is performed using DataXpress2 analysis software and data are compiled in Excel.
Compound stocks are routinely made in glass vials to 10 mM in dimethyl sulfoxide (DMSO). In some cases, when compounds are not soluble in DMSO, they are made in 100% ethanol. Stocks are sonicated as necessary. The extracellular solution for screening Late INa is composed of: 140 mM NaCl, 4 mM KCl, 1.8 mM CaCl2, 0.75 mM MgCl2, and 5 mM HEPES with pH adjusted to 7.4 using NaOH. The extracellular solution for screening Peak INa is composed of: 20 mM NaCl, 120 mM N-methyl-D glucamine, 4 mM KCl, 1.8 mM CaCl2, 0.75 mM MgCl2, and 5 mM HEPES with pH adjusted to 7.4 using HCl. The intracellular solution used to perfuse the inside of the cells for both the Late INa and Peak INa assays contains: 120 mM CsF, 20 mM CsCl, 5 mM EGTA, 5 mM HEPES and pH adjusted to 7.4 with CsOH. Compounds are diluted in extracellular solution to 10 μM in glass vials and then transferred to glass well plates before robotic addition to the cells. The 0 Na extracellular solution used at the end of each experiment for the Late INa and Peak INa assays to measure baseline current contains: 140 mM N-methyl-D-glucamine; 4 mM KCl; 1.8 mM CaCl2; 0.75 mM MgCl2; 5 mM HEPES and pH was adjusted to 7.4 with HCl.
Compounds were also evaluated for their effect in several other assays, including their effect on Peak INa. In some cases, the effect on Peak INa was measured using data from the Late INa assay. […] Since the peak INa can be very large, introducing artifacts in the recording, the concentration of Na^+ in the bath is reduced to 20 mM and a nonpermeant cation is added to compensate for the Na^+ that was omitted from the standard extracellular solution (see above). The peak INa assay uses a holding potential of −100 mV and a 20 ms test pulse to 0 mV to activate the channel. As in the Late INa assay, stepping the voltage to 0 mV causes a rapid increase in negative Na current through hNav1.5 that inactivates within a few ms. No late INa activator is added for the peak assay.
For the separate peak INa assay, both tonic (TB) block and use-dependent (UDB) block of peak inward sodium current by 10 μM compound are determined. TB is block of the channel in the resting state, before the channel opens. TB is simulated in this assay by stimulating the channel to open at a low frequency (0.1 Hz). This is done in order to measure the control current amplitude and monitor current rundown, enabling correction for rundown in the calculation of percent block for TB.

hERG potassium channel = hERG potassium channel (Homo sapiens, UniProt Q12809); experiment: hERG screening assay (PatchXpress patch clamp, CHO cell line)
hERG potassium channel, sequence (Q12809 whole entry): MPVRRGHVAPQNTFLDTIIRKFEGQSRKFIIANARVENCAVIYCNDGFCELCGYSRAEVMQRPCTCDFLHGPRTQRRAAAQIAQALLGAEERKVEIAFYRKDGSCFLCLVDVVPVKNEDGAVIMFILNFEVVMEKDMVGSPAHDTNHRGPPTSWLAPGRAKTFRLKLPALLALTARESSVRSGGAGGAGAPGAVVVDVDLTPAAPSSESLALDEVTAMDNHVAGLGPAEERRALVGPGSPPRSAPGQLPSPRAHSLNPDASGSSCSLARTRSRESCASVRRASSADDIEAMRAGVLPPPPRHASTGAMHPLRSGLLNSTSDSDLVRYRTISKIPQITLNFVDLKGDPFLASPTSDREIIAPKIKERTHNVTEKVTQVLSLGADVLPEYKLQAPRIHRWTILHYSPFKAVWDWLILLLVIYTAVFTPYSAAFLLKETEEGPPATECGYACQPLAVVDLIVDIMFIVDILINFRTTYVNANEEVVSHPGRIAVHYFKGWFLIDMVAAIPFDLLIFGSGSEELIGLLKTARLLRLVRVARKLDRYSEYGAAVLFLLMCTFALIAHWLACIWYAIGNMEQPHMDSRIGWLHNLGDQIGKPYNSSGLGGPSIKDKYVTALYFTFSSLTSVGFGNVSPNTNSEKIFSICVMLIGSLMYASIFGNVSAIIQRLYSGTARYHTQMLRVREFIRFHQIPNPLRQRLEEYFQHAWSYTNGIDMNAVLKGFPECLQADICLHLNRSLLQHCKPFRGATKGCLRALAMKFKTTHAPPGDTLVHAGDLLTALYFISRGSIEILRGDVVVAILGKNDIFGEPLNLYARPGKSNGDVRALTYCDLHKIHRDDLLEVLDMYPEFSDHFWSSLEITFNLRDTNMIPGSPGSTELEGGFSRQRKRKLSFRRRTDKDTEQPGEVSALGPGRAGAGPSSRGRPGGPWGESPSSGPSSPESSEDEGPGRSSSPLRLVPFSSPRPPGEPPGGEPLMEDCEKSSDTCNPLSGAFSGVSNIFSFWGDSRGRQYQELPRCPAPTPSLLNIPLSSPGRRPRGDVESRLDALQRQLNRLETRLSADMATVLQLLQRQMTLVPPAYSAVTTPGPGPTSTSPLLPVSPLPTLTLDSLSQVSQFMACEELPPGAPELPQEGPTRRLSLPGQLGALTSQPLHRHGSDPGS

[3] = tonic block, read-out: Tonic Peak INa % blk
[4] = use-dependent block, read-out: UDB Peak INa % blk

T1 sequence (Q14524 whole entry): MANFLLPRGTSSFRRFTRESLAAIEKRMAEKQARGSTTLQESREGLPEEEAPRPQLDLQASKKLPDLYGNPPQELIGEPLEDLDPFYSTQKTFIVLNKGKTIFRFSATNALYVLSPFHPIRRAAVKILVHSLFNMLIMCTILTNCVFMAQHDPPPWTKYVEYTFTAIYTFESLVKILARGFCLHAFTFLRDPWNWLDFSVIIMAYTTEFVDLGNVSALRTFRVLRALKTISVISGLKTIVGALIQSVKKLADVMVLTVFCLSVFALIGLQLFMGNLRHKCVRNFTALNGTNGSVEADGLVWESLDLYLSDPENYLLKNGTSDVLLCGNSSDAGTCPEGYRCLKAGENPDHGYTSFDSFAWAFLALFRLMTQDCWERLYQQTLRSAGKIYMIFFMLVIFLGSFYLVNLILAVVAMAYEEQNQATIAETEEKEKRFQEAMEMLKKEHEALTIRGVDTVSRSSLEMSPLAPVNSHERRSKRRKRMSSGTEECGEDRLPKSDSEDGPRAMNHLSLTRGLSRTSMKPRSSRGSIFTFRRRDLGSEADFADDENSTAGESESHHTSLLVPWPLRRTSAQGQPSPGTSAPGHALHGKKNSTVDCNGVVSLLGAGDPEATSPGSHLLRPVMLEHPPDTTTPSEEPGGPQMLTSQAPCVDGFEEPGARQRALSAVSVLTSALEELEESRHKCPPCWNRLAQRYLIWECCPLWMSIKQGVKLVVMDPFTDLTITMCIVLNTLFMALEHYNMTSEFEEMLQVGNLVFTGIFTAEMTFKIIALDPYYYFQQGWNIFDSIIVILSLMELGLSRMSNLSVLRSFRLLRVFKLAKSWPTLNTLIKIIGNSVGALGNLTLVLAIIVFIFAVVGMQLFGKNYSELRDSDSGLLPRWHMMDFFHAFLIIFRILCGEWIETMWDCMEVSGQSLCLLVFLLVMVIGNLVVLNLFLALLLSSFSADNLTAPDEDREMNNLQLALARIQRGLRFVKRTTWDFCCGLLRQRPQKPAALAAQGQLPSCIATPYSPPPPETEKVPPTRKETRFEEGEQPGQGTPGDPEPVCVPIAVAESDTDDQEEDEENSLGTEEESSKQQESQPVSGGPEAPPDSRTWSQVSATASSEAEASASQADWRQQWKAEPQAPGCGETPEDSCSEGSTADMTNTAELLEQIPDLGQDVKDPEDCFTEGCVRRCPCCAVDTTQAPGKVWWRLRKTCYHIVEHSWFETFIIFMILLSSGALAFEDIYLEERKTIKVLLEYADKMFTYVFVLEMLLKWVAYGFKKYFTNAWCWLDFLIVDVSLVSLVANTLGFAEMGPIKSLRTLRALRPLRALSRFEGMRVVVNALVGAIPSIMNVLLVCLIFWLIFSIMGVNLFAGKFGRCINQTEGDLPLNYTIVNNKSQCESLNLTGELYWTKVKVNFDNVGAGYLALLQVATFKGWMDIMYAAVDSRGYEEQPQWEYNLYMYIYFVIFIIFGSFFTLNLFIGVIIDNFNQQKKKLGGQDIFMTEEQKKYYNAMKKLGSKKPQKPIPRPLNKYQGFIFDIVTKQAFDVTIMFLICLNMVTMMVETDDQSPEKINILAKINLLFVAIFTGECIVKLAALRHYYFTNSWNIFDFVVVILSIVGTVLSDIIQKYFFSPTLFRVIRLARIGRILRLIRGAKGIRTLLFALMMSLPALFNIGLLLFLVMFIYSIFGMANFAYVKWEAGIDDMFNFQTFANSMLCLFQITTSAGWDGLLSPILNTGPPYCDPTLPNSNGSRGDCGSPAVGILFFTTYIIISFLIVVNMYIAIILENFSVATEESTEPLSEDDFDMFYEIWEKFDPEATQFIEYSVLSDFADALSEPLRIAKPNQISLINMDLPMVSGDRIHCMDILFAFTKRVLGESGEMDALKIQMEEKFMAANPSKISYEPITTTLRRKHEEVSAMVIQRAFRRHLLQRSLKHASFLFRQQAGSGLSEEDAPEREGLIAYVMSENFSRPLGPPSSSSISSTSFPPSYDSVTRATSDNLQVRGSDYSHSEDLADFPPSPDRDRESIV

Row | Compound | inhibition at 10 µM ([1]; compound at 10 μM) | inhibition at 10 µM [2, 3] | hERG Patch Clamp hERG % blk (hERG potassium channel; 1 μM) | hERG Patch Clamp hERG % blk (hERG potassium channel; 10 μM) | inhibition at 10 µM [2, 4] | inhibition at 10 µM [1]
1 | CC1=C(C(=O)OCc2ccccc2)C(c2ccccc2-c2cccc(NS(C)(=O)=O)c2)n2nnnc2N1 (centres unmarked) [PT-348, benzyl 5-methyl-7-(3′-(methylsulfonamido)biphenyl-2-yl)-4,7-dihydrotetrazolo[1,5-a]pyrimidine-6-carboxylate] | 71.6% | 17.2% | 10.0% | 38.5% |  | 
2 | CCOC(=O)C1=C(C)NC(C)=C(C(=O)OCC)C1c1ccccc1Br [PT-430, diethyl 4-(2-bromophenyl)-2,6-dimethyl-1,4-dihydropyridine-3,5-dicarboxylate] | 95.3% | 91% | 10.0% | 21.5% | 55.6% | 
3 | CC1=C(C(=O)N2CCC(c3ccc(C(=O)O)cc3)CC2)C(c2cccc3ccccc23)C2=C(CCCC2=O)N1 (centres unmarked) [PT-173, 4-(1-(2-methyl-4-(naphthalen-1-yl)-5-oxo-1,4,5,6,7,8-hexahydroquinoline-3-carbonyl)piperidin-4-yl)benzoic acid] | 52.6% | 0% | 12.0% | 37.0% |  | 
4 | CCOC(=O)C1=C(C)Nc2nnnn2C1c1cccc2ccccc12 (centres unmarked) [PT-192, ethyl 5-methyl-7-(naphthalen-1-yl)-4,7-dihydrotetrazolo[1,5-a]pyrimidine-6-carboxylate] |  | 0% | 23.0% | 29.0% |  | 52.3%
5 | CCOC(=O)C1=C(C)Nc2nnnn2C1c1ccc2ccccc2c1 (centres unmarked) [PT-008, ethyl 5-methyl-7-(naphthalen-2-yl)-4,7-dihydrotetrazolo[1,5-a]pyrimidine-6-carboxylate] | 57.2% | 2.1% | 10.0% | 33.5% |  | 
6 | CC1=C(C(=O)OCc2ccccc2)C(c2cccs2)n2nnnc2N1 (centres unmarked) [PT-040, benzyl 5-methyl-7-(thiophen-2-yl)-4,7-dihydrotetrazolo[1,5-a]pyrimidine-6-carboxylate] | 70.8% | 9.9% | 14.5% | 24.5% |  | 
7 | CCOC(=O)C1=C(C)NC(C)=C(C(=O)OCC)C1c1ccc2c(c1)OCCO2 [PT-109, diethyl 4-(2,3-dihydrobenzo[b][1,4]dioxin-6-yl)-2,6-dimethyl-1,4-dihydropyridine-3,5-dicarboxylate] |  | 18.1% | 16.0% | 34.2% |  | 
8 | CC1=C(C(=O)O[C@@H](C)c2ccccc2)C(c2cccc3ccccc23)n2nnnc2N1 (stereo partly drawn) [PT-048, (S)-1-phenylethyl 5-methyl-7-(naphthalen-1-yl)-4,7-dihydrotetrazolo[1,5-a]pyrimidine-6-carboxylate] | 90.8% | 58.6% |  |  |  | 
9 | CC1=C(C(=O)OCc2ccccc2)C(c2cc(C)c(C)s2)n2nnnc2N1 (centres unmarked) [PT-414, benzyl 7-(4,5-dimethylthiophen-2-yl)-5-methyl-4,7-dihydrotetrazolo[1,5-a]pyrimidine-6-carboxylate] | 78% | 21.6% |  |  |  | 
10 | CC1=C(C(=O)OCc2ccccc2)C(c2ccc(N(C)C)c3ccccc23)c2cn[nH]c2N1 (centres unmarked) [PT-332, benzyl 4-(4-(dimethylamino)naphthalen-1-yl)-6-methyl-4,7-dihydro-1H-pyrazolo[3,4-b]pyridine-5-carboxylate] | 20% | 11.3% |  |  | 2.7% | 

— patent publication US20090012103A1, “SUBSTITUTED HETEROCYCLIC COMPOUNDS” (priority 2007, published 2009)
